{"source": "patent US20260083687A1", "about": "“COMPOUNDS FOR REDUCING LACTATION AND IMPROVING HEALTH” (AHV International B.V., priority 2022, published 2026)", "test_system": "cows", "assay": "Effect of 40 ml and 80 ml oral DPD capsule vs placebo on the milk yield of cows (Example 1)", "assay_type": "in vivo, cow", "design": "average milk drop (Difference: observed minus expected milk yield) / average milk drop (difference): unit not given here", "details": "for Milk production: 40 ml DPD oral capsule on day 13, individual cows", "protocol": "15 cows from 3 different farms were used in study 1 and 30 cows from 4 different farms were used in study 2. […] The cows are milked twice a day. The cows were housed in free stables. […] The farmers were not informed which cows were treated.\nThe placebo group existed of 8 cows, whereas the size of the treated group was 7 cows.\nFor study 2, the gelatin capsule contained 80 ml of the DPD and the gelatine capsule for the placebo group contained tap water. Nine cows were administered a single dose of DPD 7 to 14 days before the start of their dry-off period and nine cows were administered a single dose of the placebo capsule. The cows were placed randomly in the DPD or placebo group. This was done per group that was dried off at the same time for every farm individually, so that every farm had 50% of the cows in the treatment group and 50% in the control group.\nOn t =13 days the DPD-containing capsules and the placebo capsules were administered.\nThe following hypothesis was tested and compared by statistical analysis: H0 is defined as there is no difference between the relative milk production before and after treatment between administering of the DPD bolus and placebo, and H1 is defined as there is a difference between the relative milk production before and after treatment between the DPD and placebo group.\nThe data were processed as follows: based on the data obtained from day 0, 1, 2, 3 . . . 12 the expected milk yields on day 13, 14, […] were calculated by linear regression for each cow. On t=13 the Placebo-capsule or DPD-containing capsule were administered into the rumen. The predicted data (as if no administration of a Placebo or DPD-containing capsule has taken place) and actual milk yields after administration were compared from t=13 days and the milk drop was calculated. This was performed for all the cows in the tests.\nHereafter, the average milk drop was calculated as the difference between the observed and the expected milk yield per day, which is calculated by comparing the expected milk yields that were obtained via linear regression, and the actual milk yields, obtained after treatment with a Placebo or DPD.\nThe Null Hypothesis is that the difference is zero. We calculate the P-values for these differences using a permutation test (5000 samples).\nThe Null Hypothesis was defined that that the difference of the 6 treatment cows and Placebo cows is zero. We calculate the P-values for these differences using a permutation test (5000 samples).", "note": "Where “and” joins values, the source holds several entries; their conditions need not be identical. Equal values may be shown once."}
{"smiles": "CCCSSCCC", "note": "[DPD, di-n-propyl disulfide]", "values": [{"measurement": "Milk production", "setting": "day 1 (before treatment)", "result": "15.9 and 25.8"}, {"measurement": "Milk production", "setting": "day 2 (before treatment)", "result": "15.3 and 31.7 and 5.9"}, {"measurement": "Milk production", "setting": "day 3 (before treatment)", "result": "16 and 30.4 and −1.3"}, {"measurement": "Milk production", "setting": "day 4 (before treatment)", "result": "15.6 and 29.9"}, {"measurement": "Milk production", "setting": "day 5 (before treatment)", "result": "15.2 and 27.7"}, {"measurement": "Milk production", "setting": "day 6 (before treatment)", "result": "14.5 and 28.4 and 23.6 and 24.5"}, {"measurement": "Milk production", "setting": "day 7 (before treatment)", "result": "14.9 and 29.3 and 24 and 24.4"}, {"measurement": "Milk production", "setting": "day 8 (before treatment)", "result": "13.4 and 28.1 and 22.4 and 24.6"}, {"measurement": "Milk production", "setting": "day 9 (before treatment)", "result": "13.6 and 28.4 and 24.4 and 24.7"}, {"measurement": "Milk production", "setting": "day 10 (before treatment)", "result": "13.8 and 27 and 23.4 and 25.3"}, {"measurement": "Milk production", "setting": "day 11 (before treatment)", "result": "13.7 and 28.8 and 24.2 and 22.5"}, {"measurement": "Milk production", "setting": "day 12 (before treatment)", "result": "12.9 and 27 and 21.7 and 22.2"}, {"measurement": "Milk production", "setting": "day 13 (day of treatment)", "result": "12.9 and 27.7 and 23.2 and 20.4"}, {"measurement": "Milk production", "setting": "day 14", "result": "12 and 26.4 and 22.2 and 22.3"}, {"measurement": "Milk production", "setting": "day 15", "result": "11.4 and 23.7 and 23.1 and 20.5"}, {"measurement": "Milk production", "setting": "day 16", "result": "11.4 and 21.5 and 23.7 and 24.4"}, {"measurement": "Milk production", "setting": "day 17", "result": "12.8 and 25.4 and 23.1 and 22"}, {"measurement": "Milk production", "setting": "day 18", "result": "10.9 and 27.5 and 23.2 and 14.8"}, {"measurement": "Milk production", "setting": "day 19", "result": "11.6 and 25.7 and 22.9 and 9.8"}, {"measurement": "Milk production", "setting": "day 20", "result": "10.2 and 24.8 and 22.3 and 24.3"}, {"measurement": "Milk production", "setting": "day 21", "result": "9.9 and 23 and 21.3 and 25.8"}, {"measurement": "effect on milk yield", "setting": "40 ml DPD vs placebo", "result": "not in a significant decrease on milk yield"}, {"measurement": "Mean Difference Treatment − Placebo", "setting": "40 ml DPD, day 14", "result": "−0.3233 litres milk per day per cow"}, {"measurement": "Significant (effect on milk yield vs placebo)", "setting": "40 ml DPD, day 14", "result": "No"}, {"measurement": "average milk drop (Difference: observed minus expected milk yield)", "setting": "40 ml DPD, day 14", "result": "−0.226"}, {"measurement": "Mean Difference Treatment − Placebo", "setting": "40 ml DPD, day 15", "result": "−0.873 litres milk per day per cow"}, {"measurement": "Significant (effect on milk yield vs placebo)", "setting": "40 ml DPD, day 15", "result": "No"}, {"measurement": "average milk drop (Difference: observed minus expected milk yield)", "setting": "40 ml DPD, day 15", "result": "−0.9122"}, {"measurement": "Mean Difference Treatment − Placebo", "setting": "40 ml DPD, day 16", "result": "1.599 litres milk per day per cow"}, {"measurement": "Significant (effect on milk yield vs placebo)", "setting": "40 ml DPD, day 16", "result": "No"}, {"measurement": "average milk drop (Difference: observed minus expected milk yield)", "setting": "40 ml DPD, day 16", "result": 1.673}, {"measurement": "Mean Difference Treatment − Placebo", "setting": "40 ml DPD, day 17", "result": "−0.4365 litres milk per day per cow"}, {"measurement": "Significant (effect on milk yield vs placebo)", "setting": "40 ml DPD, day 17", "result": "No"}, {"measurement": "average milk drop (Difference: observed minus expected milk yield)", "setting": "40 ml DPD, day 17", "result": 1.201}, {"measurement": "Mean Difference Treatment − Placebo", "setting": "40 ml DPD, day 18", "result": "−0.5789 litres milk per day per cow"}, {"measurement": "Significant (effect on milk yield vs placebo)", "setting": "40 ml DPD, day 18", "result": "No"}, {"measurement": "average milk drop (Difference: observed minus expected milk yield)", "setting": "40 ml DPD, day 18", "result": 0.4719}, {"measurement": "Mean Difference Treatment − Placebo", "setting": "40 ml DPD, day 19", "result": "−0.9982 litres milk per day per cow"}, {"measurement": "Significant (effect on milk yield vs placebo)", "setting": "40 ml DPD, day 19", "result": "No"}, {"measurement": "average milk drop (Difference: observed minus expected milk yield)", "setting": "40 ml DPD, day 19", "result": "−0.2714"}, {"measurement": "Mean Difference Treatment − Placebo", "setting": "40 ml DPD, day 20", "result": "−0.296 litres milk per day per cow"}, {"measurement": "Significant (effect on milk yield vs placebo)", "setting": "40 ml DPD, day 20", "result": "No"}, {"measurement": "average milk drop (Difference: observed minus expected milk yield)", "setting": "40 ml DPD, day 20", "result": 1.657}, {"measurement": "Mean Difference Treatment − Placebo", "setting": "40 ml DPD, day 21", "result": "0.1722 litres milk per day per cow"}, {"measurement": "Significant (effect on milk yield vs placebo)", "setting": "40 ml DPD, day 21", "result": "No"}, {"measurement": "average milk drop (Difference: observed minus expected milk yield)", "setting": "40 ml DPD, day 21", "result": 1.713}, {"measurement": "effect on milk yield", "setting": "80 ml DPD vs placebo", "result": "significant decrease in milk yield"}, {"measurement": "recovery of milk yield production", "setting": "80 ml DPD, after the 3 days following treatment", "result": "recovers after this period"}, {"measurement": "Mean Difference Treatment − Placebo", "setting": "80 ml DPD, day 13", "result": "0.2566 litres milk per day per cow"}, {"measurement": "Significance (effect on milk yield vs placebo)", "setting": "80 ml DPD, day 13", "result": "No"}, {"measurement": "average milk drop (difference)", "setting": "80 ml DPD, day 13", "result": 0.3592}, {"measurement": "Mean Difference Treatment − Placebo", "setting": "80 ml DPD, day 14", "result": "−4.56 litres milk per day per cow"}, {"measurement": "Significance (effect on milk yield vs placebo)", "setting": "80 ml DPD, day 14", "result": "Yes"}, {"measurement": "average milk drop (difference)", "setting": "80 ml DPD, day 14", "result": "−5.726"}, {"measurement": "Mean Difference Treatment − Placebo", "setting": "80 ml DPD, day 15", "result": "−6.729 litres milk per day per cow"}, {"measurement": "Significance (effect on milk yield vs placebo)", "setting": "80 ml DPD, day 15", "result": "Yes"}, {"measurement": "average milk drop (difference)", "setting": "80 ml DPD, day 15", "result": "−7.051"}, {"measurement": "Mean Difference Treatment − Placebo", "setting": "80 ml DPD, day 16", "result": "−4.421 litres milk per day per cow"}, {"measurement": "Significance (effect on milk yield vs placebo)", "setting": "80 ml DPD, day 16", "result": "Yes"}, {"measurement": "average milk drop (difference)", "setting": "80 ml DPD, day 16", "result": "−3.891"}, {"measurement": "Mean Difference Treatment − Placebo", "setting": "80 ml DPD, day 17", "result": "−0.4065 litres milk per day per cow"}, {"measurement": "Significance (effect on milk yield vs placebo)", "setting": "80 ml DPD, day 17", "result": "No"}, {"measurement": "average milk drop (difference)", "setting": "80 ml DPD, day 17", "result": "−1.8508"}, {"measurement": "Mean Difference Treatment − Placebo", "setting": "80 ml DPD, day 18", "result": "0.2326 litres milk per day per cow"}, {"measurement": "Significance (effect on milk yield vs placebo)", "setting": "80 ml DPD, day 18", "result": "No"}, {"measurement": "average milk drop (difference)", "setting": "80 ml DPD, day 18", "result": "−1.4323"}, {"measurement": "Mean Difference Treatment − Placebo", "setting": "80 ml DPD, day 19", "result": "0.9803 litres milk per day per cow"}, {"measurement": "Significance (effect on milk yield vs placebo)", "setting": "80 ml DPD, day 19", "result": "No"}, {"measurement": "average milk drop (difference)", "setting": "80 ml DPD, day 19", "result": "−0.1878"}, {"measurement": "Mean Difference Treatment − Placebo", "setting": "80 ml DPD, day 20", "result": "1.162 litres milk per day per cow"}, {"measurement": "Significance (effect on milk yield vs placebo)", "setting": "80 ml DPD, day 20", "result": "No"}, {"measurement": "average milk drop (difference)", "setting": "80 ml DPD, day 20", "result": 0.262}, {"measurement": "decrease of milk production compared to the placebo group (average)", "setting": "80 ml DPD, next 3 days after treatment", "result": 6, "unit": "litres per day per cow"}, {"measurement": "decreased milk production", "setting": "DPD, day 2 after treatment", "result": 7.7, "unit": "L/day"}]}
